Reference: ChEMBL document CHEMBL5352505, “Targeting MET: Discovery of Small Molecule Inhibitors as Non-Small Cell Lung Cancer Therapy” (J Med Chem, 2023)

Legend:
[1] = system: CT26; test: Antiproliferative activity against CT26 cells assessed as inhibition of cell growth; format: functional, cell-based; details: Mus musculus
[2] = system: NCI-H1993; test: Antiproliferative activity against human NCI-H1993 cells assessed as inhibition of cell growth; format: functional, cell-based
[3] = system: NCI-H1703; test: Antiproliferative activity against human NCI-H1703 cells assessed as inhibition of cell growth; format: functional, cell-based
[4] = system: A549; test: Antiproliferative activity against human A549 cells assessed as inhibition of cell growth; format: functional, cell-based
[5] = system: MHCC97H; test: cells; details: Homo sapiens, 72 h
[6] = Oral bioavailability in mouse; format: ADME, organism-based; details: in vivo
[7] = system: MKN-45; test: Antiproliferative activity against human MKN-45 cells assessed as inhibition of cell growth measured after 72 hrs by CellTiter-Glo assay; format: functional, cell-based; details: MKN-45, 72 h
[8] = system: EBC-1; test: Antiproliferative activity against human EBC-1 cells assessed as inhibition of cell growth measured after 72 hrs by CellTiter-Glo assay; format: functional, cell-based; details: EBC-1, 72 h
[9] = system: MKN-45; test: cells; details: Homo sapiens
[10] = system: Hs746T; test: cells; details: Homo sapiens
[11] = system: SNU-5; test: cells; details: Homo sapiens
[12] = system: EBC-1; test: cells; details: Homo sapiens
[13] = system: NCI-H460; test: Antiproliferative activity against human NCI-H460 cells assessed as inhibition of cell growth measured after 48 hrs by MTS assay; format: functional, cell-based; details: NCI-H460, 48 h
[14] = system: MKN-45; test: Antiproliferative activity against human MKN-45 cells assessed as inhibition of cell growth measured after 48 hrs by MTS assay; format: functional, cell-based; details: MKN-45, 48 h
[15] = system: NCI-H441; test: Antiproliferative activity against human NCI-H441 cells assessed as inhibition of cell growth measured after 48 hrs by MTS assay; format: functional, cell-based; details: NCI-H441, 48 h
[16] = system: A549; test: Antiproliferative activity against human A549 cells assessed as inhibition of cell growth measured after 48 hrs by MTS assay; format: functional, cell-based; details: A549, 48 h
[17] = target: T1, Hepatocyte growth factor receptor (Homo sapiens, UniProt P08581); test: Inhibition of human GST tagged c-Met CD expressed in Sf9 cells using poly(Glu:Tyr) as substrate incubated for 5 mins in presence of ATP by horseradish peroxidase based ELISA method
[18] = Metabolic stability in rat liver microsomes assessed as half life; format: ADME, Microsome
[19] = Metabolic stability in human liver microsomes assessed as half life; format: ADME, Microsome
[20] = Metabolic stability in mouse liver microsomes assessed as half life; format: ADME, Microsome
[21] = system: EBC-1; test: Antiproliferative activity against human EBC-1 cells assessed as inhibition of cell growth measured after 3 days by CellTiter-Glo assay; format: functional, cell-based; details: EBC-1, 72 h
[22] = system: Hs746T; test: Antiproliferative activity against human Hs746T cells assessed as inhibition of cell growth measured after 4 days by CellTiter-Glo assay; format: functional, cell-based; details: 96 h
[23] = target: T1, Hepatocyte growth factor receptor; test: Inhibition of MET (unknown origin)
[24] = system: MKN-45; test: Antiproliferative activity against human MKN-45 cells assessed as inhibition of cell growth measured after 72 hrs by Cell Titer blue assay; format: functional, cell-based; details: MKN-45, 72 h
[25] = system: GTL 16 cell line; test: Antiproliferative activity against human GTL 16 cell line assessed as inhibition of cell growth; format: functional, cell-based

## COc1cc2c(Oc3ccc(-c4cnc(Nc5ccc(F)cc5)n(C)c4=O)nc3)ccnc2cc1OCCCN1CCOCC1
[1]
  IC50: 59 nM

## Cc1ccc(C(=O)Nc2ccc(Oc3cc4cnn(C)c4cc3-c3cn[nH]c3)c(F)c2)c(=O)n1-c1ccc(F)cc1 [MERESTINIB]
[2]
  IC50: 9.28 nM
[3]
  IC50: 72.9 nM
[4]
  IC50: 628 nM

## [2H]C([2H])[C@]([2H])(c1cccc(-c2ncc(OCC3CCN(C)CC3)cn2)c1)n1nc(-c2cccc(C#N)c2)ccc1=O
[5]
  IC50: 37 nM
[6]
  bioavailability: 104%

## Fc1ccc(Cl)c(C2(c3n[nH]c4ncc(-c5cnn(C6CCNCC6)c5)cc34)CC2)c1Cl
[7]
  IC50: 670 nM
[8]
  IC50: 1190 nM

## CN1CCN(Cc2ccc(-c3cnc(N4CCOC(Cn5nnc6ncc(-c7cnn(C)c7)nc65)C4)nc3)cc2)CC1 (centres undefined)
[9]
  IC50: 3.18 nM
[10]
  IC50: 2 nM
[11]
  IC50: 4.34 nM
[12]
  IC50: 2.22 nM

## [2H]c1ccc2cc(C(F)(F)c3nnc4ccc(-c5cnn(C)c5)nn34)ccc2n1
[9]
  IC50: 25 nM
[12]
  IC50: 17 nM

## Cc1c(C(=O)Nc2ccc(Oc3ccnc4cc(OCC(C)(C)O)ccc34)c(F)c2)c(=O)n(-c2ccccc2)n1C [NINGETINIB]
[9]
  IC50: 7 nM
[10]
  IC50: 140 nM
[11]
  IC50: 60 nM

## O=C1NC(=O)[C@@H](c2cn3c4c(cccc24)CCC3)[C@@H]1c1c[nH]c2ccccc12 [TIVANTINIB]
[13]
  IC50: 600 nM
[14]
  IC50: 580 nM
[15]
  IC50: 300 nM
[16]
  IC50: 590 nM

## Cc1[nH]c(/C=C2\C(=O)Nc3ccc(S(=O)(=O)N(C)c4cccc(Cl)c4)cc32)c(C)c1C(=O)N1CCN(C)CC1
[17]
  IC50: 10 nM

## CN1CCN(C2CCN(C(=O)Nc3cc(Oc4ccc(NC(=O)C5(C(=O)Nc6ccc(F)cc6)CC5)c(F)c4)ccn3)CC2)CC1 [GOLVATINIB]
[9]
  IC50: 37 nM
[10]
  IC50: 23 nM
[11]
  IC50: 6.2 nM
[12]
  IC50: 24 nM

## CCN1Cc2c(ccc(F)c2C#N)O[C@@H](C)CNC(=O)c2c(N)nn3ccc1nc23 [ELZOVANTINIB]
[9]
  IC50: 0.2 nM
[11]
  IC50: 0.17 nM

## C[C@H](c1cccc(-c2ncc(OCC3CCN(C)CC3)cn2)c1)n1cc(-c2cc(C#N)ccn2)cc(F)c1=O
[5]
  IC50: 8.8 nM
[18]
  half-life: 36.5 min
[19]
  half-life: 62.1 min
[20]
  half-life: 49.1 min

## CC(C)(O)CN1CCC(COc2cnc(-c3cccc(Cn4c(=O)ccn5c6cc(C#N)ccc6nc45)c3)nc2)CC1
[21]
  IC50: 4.81 nM
[22]
  IC50: 1.5 nM
[6]
  bioavailability: 82.3%

## [O-][S+](c1c(Cl)ccc(F)c1Cl)c1c[nH]c2ncc(-c3cnn(C4CCNCC4)c3)cc12 (centres undefined)
[7]
  IC50: 1490 nM
[8]
  IC50: 1590 nM

## COc1ccc2c(Oc3ccc(NC(=O)c4c(C)n(CC(C)(C)O)n(-c5ccccc5)c4=O)nc3)ccnc2c1
[23]
  IC50: 2 nM

## Cn1cc(-c2ccc3nnc(C(F)(F)c4ccc5ncccc5c4)n3n2)cn1 [JNJ-38877605]
[9]
  IC50: 18.6 nM
[12]
  IC50: 8.4 nM

## C[C@@H](Oc1cc(C(=O)Nc2ccc(C(=O)N3CCN(C)CC3)cc2)nnc1N)c1c(Cl)ccc(F)c1Cl
[24]
  IC50: 150 nM

## C[C@H]1CNC(=O)c2c(N)nn3ccc(nc23)NCc2c(ccc(F)c2C#N)O1
[9]
  IC50: 297 nM

## CCOc1ccn(-c2ccc(F)cc2)c(=O)c1C(=O)Nc1ccc(Oc2ccnc(N)c2Cl)c(F)c1 [BMS-777607]
[25]
  IC50: 100 nM

## CCN1Cc2c(ccc(F)c2C#N)O[C@H](C)CNC(=O)c2c(N)nn3ccc1nc23
[9]
  IC50: 251 nM
